Measurements taken from patent publication US20100221228A1, “y134.5 Deficient HSV and the MAPK Pathway” (The University of Chicago, priority 2006, published 2010).

What was measured:
[1] = tested on: HT1080 cells infected with R3616; experiment: MEK inhibitor study: R3616 yield in HT1080 cells with PD98059 or DMSO; type: cell-based, human
Procedure: (§1) Inhibitor studies—For experiments employing the known MEK inhibitor, PD98059, HT1080 cells were starved over night in serum-free medium and then exposed to 40 μM of PD98059 (EMD Biosciences, San Diego, Calif.), or DMSO (1:1000 dilution) 6 hours prior to, and during, infection. At 12 hours post-infection, whole cell lysates were created as described above for immunoblotting.
Finally, to determine if MEK inhibition affects viral replication, DMSO or PD98059 (40 μM) was added to replicate cultures of HT1080 cells 6 hours prior to, and during, infection with R3616 (1 PFU/cell).

[2] = tested on: HT1080 cells infected with R3616; experiment: MEK inhibitor study: immunoblotting of viral proteins and phospho-PKR; type: cell-based, human
Procedure: as §1
To determine if MEK mediates the observed mutant Ras-dependent suppression of PKR activation and resultant accumulation of viral proteins in HT1080 cells infected with mutant virus R3616, the relative expressions of representative a (ICP27), β (U142) and γ2 (glycoprotein C) viral proteins in cells treated with a specific chemical inhibitor of MEK-1 (PD98059) were compared. Replicate cultures of HT1080 cells were serum-starved overnight prior to exposure to equal volumes of DMSO or PD98059 (40 μM) for 6 hours prior to infection with R3616 mutant virus (10 PFU/cell). DMSO or drug treatment was then continued until the cells were harvested at 12 hours post-infection. The cells were then lysed and the lysates were subjected to electrophoresis in denaturing polyacrylamide gels, followed by transferring to PVDF membranes and reacting with antibody to ICP27, UL42, or gC. […] To test whether the decrease in the accumulation of gC correlated with activation of PKR, the electrophoretically separated lysates were also probed with antibody to the auto-phosphorylated form of PKR (P-Thr446). The presence of PD98059 prior to, and during, infection with R3616 […] the amount of activated PKR in HT1080 cells (FIG. 6, panel B).

[3] = PD98059 40 μM, R3616 10 PFU/cell, 12 hours post-infection

Question: Which results are given for `COc1cccc(-c2cc(=O)c3ccccc3o2)c1N` [PD98059]?
Answer: yield of R3616 lower than in the presence of DMSO ([1]; PD98059 40 μM): approximately 15 fold; yield of R3616 mutant virus ([1]; in the presence of PD98059 40 μM, 6 hours prior to and during infection, 1 PFU/cell, 36 hours): 1.67×10^5 PFU/ml; amount of activated PKR (P-Thr446) ([2]; PD98059 40 μM prior to and during infection with R3616): increased; accumulation of ICP27 and UL42 proteins [2, 3]: slight effect; amounts of gC that accumulated [2, 3]: very dramatic decrease
